Test systems include HS 578T breast; SF-295 CNS; HCT-15 colon; MDA-N; MDA-MB-231 breast; A498 renal; SK-MEL-2 melanoma; RPMI-8226 leukemia; IGROV1 ovarian.
Common to all, as to assay: DTP human tumour cell line panel, 48 h

Structures are written as SMILES. “And” between values parts separate entries of the source, which are not always exact repeats. Equal entries are not always repeated.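 Dose response: 5 concentrations. Exposure: 48 h. Format: 96-well plates. Endpoint: linear interpolation; highest concentration if not reached. GI50: concentration for 50% inhibition of growth. TGI marks complete inhibition of growth.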

One may read the TGI as the concentration at which net growth stops. High values mean less potent growth arrest, low ones more potent growth arrest. Turning to `O=[N+]([O-])c1ccc(Sc2c3ccccc3nc3ccccc23)nc1`, the TGI with HS 578T breast was 60.7 µM; in the assay with SF-295 CNS it was 51.1 µM; with HCT-15 colon, 12.1 µM; in the assay with MDA-N, 17.6 µM; in the assay with MDA-MB-231 breast it was 15.4 µM; with A498 renal it was 32.8 µM. Further, the concentration for total growth inhibition (TGI) is 38.8 µM with SK-MEL-2 melanoma, 5.03 µM with RPMI-8226 leukemia and 30.6 µM in the assay on IGROV1 ovarian.

Consider `NC(=O)/C=C/NC(=O)/C=N\O`, for which the TGI in the assay with HS 578T breast, with SF-295 CNS, in the assay with HCT-15 colon, with MDA-N, with MDA-MB-231 breast and in the assay with A498 renal was more than 100 µM in each case. Also, the TGI in the assay with RPMI-8226 leukemia and in the assay on IGROV1 ovarian was more than 100 µM each time.

With `CNC1C(O)C(OC2C(N)CC(N)C(OC3OC(C(C)O)C(O)C(O)C3N)C2O)OCC1(C)O` (centres undefined), the TGI in the assay with HS 578T breast, with SF-295 CNS, with HCT-15 colon, in the assay on MDA-N, in the assay on MDA-MB-231 breast and in the assay on A498 renal was more than 100 µM each time. In addition, the TGI in the assay with SK-MEL-2 melanoma, in the assay on RPMI-8226 leukemia and with IGROV1 ovarian was more than 100 µM throughout.

Turning to `CCc1nc(Cl)nc(Cl)c1Cl`, the TGI was found to be 9.39 µM with HS 578T breast; 23.1 µM in the assay on SF-295 CNS; 1.88 µM with HCT-15 colon; 15.2 µM in the assay on MDA-N; 13.1 µM in the assay with MDA-MB-231 breast; 25.6 µM with A498 renal. The molecule also registered a TGI in the assay with IGROV1 ovarian of 13.7 µM.

Take `CSc1ccc(/C=C/c2ccnc3ccccc23)cc1`: the TGI in the assay on HS 578T breast stood at 43.4 µM; in the assay on SF-295 CNS, 27.5 µM; in the assay on HCT-15 colon, 25.7 µM; in the assay on MDA-N, 27 µM; in the assay on MDA-MB-231 breast, 30.8 µM; in the assay on A498 renal it was 29.2 µM. Further, the values for the TGI with SK-MEL-2 melanoma and with IGROV1 ovarian were 30.1 µM and 39.4 µM, respectively.

In general, GI50 refers to the concentration giving 50% growth inhibition. Regarding `Cc1c(NC(=O)OC[C@@H]2COCCN2)cn2ncnc(Nc3ccc4c(cnn4Cc4cccc(F)c4)c3)c12`, the GI50 in the assay on HS 578T breast is 2.32 µM and 5.49 µM; in the assay with SF-295 CNS, 9.08 µM and 5.67 µM; in the assay with HCT-15 colon, 5.81 µM and 6.14 µM; in the assay with MDA-MB-231 breast, 4.89 µM and 2.99 µM; in the assay on A498 renal, 0.532 µM and 1.02 µM; in the assay on SK-MEL-2 melanoma, > 10 µM and 12.9 µM. The GI50 is 5.35 µM and 6.35 µM in the assay on RPMI-8226 leukemia; 0.855 µM and 2.16 µM in the assay on IGROV1 ovarian. The TGI with HS 578T breast was > 10 µM and 52.2 µM; in the assay on SF-295 CNS, > 10 µM and 20.6 µM; in the assay on HCT-15 colon, > 10 µM and 21.4 µM; in the assay on MDA-MB-231 breast, > 10 µM and 13.4 µM; in the assay with A498 renal, > 10 µM and 15.5 µM; in the assay with SK-MEL-2 melanoma it was > 10 µM and 29.4 µM. Besides, the TGI in the assay on RPMI-8226 leukemia was > 10 µM and 28.2 µM; in the assay on IGROV1 ovarian, > 10 µM and 19.9 µM.

Take `CN(C[C@@H]1COCCO1)S(=O)(=O)Nc1ccc2ccc3ncc(-c4cnn(C)c4)cc3c(=O)c2c1`: the GI50 was 1.35 µM with HS 578T breast; 0.632 µM with SF-295 CNS; 3.64 µM with HCT-15 colon; 7.76 µM in the assay with MDA-MB-231 breast; 0.447 µM in the assay with A498 renal; 3.12 µM with SK-MEL-2 melanoma. In addition, the GI50 with RPMI-8226 leukemia was 3.88 µM; in the assay on IGROV1 ovarian it was 2.5 µM. Further, the TGI was 6.16 µM with HS 578T breast; more than 34.2 µM in the assay on SF-295 CNS; more than 100 µM in the assay with HCT-15 colon; more than 100 µM with MDA-MB-231 breast; 2.18 µM with A498 renal; more than 29.4 µM in the assay with SK-MEL-2 melanoma. In addition, the TGI with RPMI-8226 leukemia and in the assay on IGROV1 ovarian was more than 100 µM throughout.

`CCOC(=O)c1cc2c(n1Cc1ccccc1)-c1oncc1CC2`: the GI50 is 2.75 µM in the assay on HS 578T breast; 2.89 µM in the assay with SF-295 CNS; 3.58 µM in the assay on HCT-15 colon; 5.66 µM in the assay with MDA-MB-231 breast; 1.55 µM in the assay with A498 renal; 6.15 µM in the assay with SK-MEL-2 melanoma. The GI50 in the assay on RPMI-8226 leukemia was 4.65 µM; in the assay with IGROV1 ovarian it was 4.98 µM. In addition, the TGI in the assay with HS 578T breast was found to be 17.5 µM; in the assay on SF-295 CNS, 11.1 µM; with HCT-15 colon, 56.2 µM; with MDA-MB-231 breast, 57.1 µM; in the assay on A498 renal, 7.5 µM; with SK-MEL-2 melanoma it was 27.3 µM. The TGI with RPMI-8226 leukemia was 30.2 µM; in the assay with IGROV1 ovarian, 60.1 µM.

In the case of `CCc1nc(N)nc(N)c1-c1ccc(NCCc2ccccc2)c([N+](=O)[O-])c1`, the TGI is more than 75.4 µM in the assay with HS 578T breast; 32.9 µM with SF-295 CNS; more than 57.5 µM in the assay with HCT-15 colon; more than 57.5 µM in the assay on MDA-N; more than 88.9 µM with MDA-MB-231 breast; 43.4 µM in the assay with A498 renal. The values for the TGI in the assay on SK-MEL-2 melanoma, with RPMI-8226 leukemia and with IGROV1 ovarian were 36.7 µM, 7.35 µM and 47.8 µM, respectively.

Consider `O=C(c1ccccc1)c1nc2ccc(C(F)(F)F)cc2[n+]([O-])c1C(F)(F)F`, for which the GI50 in the assay on HS 578T breast is 52.6 µM; in the assay on SF-295 CNS it was 19.7 µM; in the assay on HCT-15 colon, 35.1 µM; in the assay on MDA-MB-231 breast it was 45.1 µM; in the assay on A498 renal it was 13.2 µM; with SK-MEL-2 melanoma, 27.5 µM. Also, the GI50 with RPMI-8226 leukemia and in the assay with IGROV1 ovarian was 16.4 µM throughout. In addition, the TGI is more than 100 µM in the assay with HS 578T breast; more than 100 µM in the assay with SF-295 CNS; more than 100 µM in the assay on HCT-15 colon; more than 100 µM in the assay with MDA-MB-231 breast; 45.2 µM with A498 renal; more than 100 µM in the assay on SK-MEL-2 melanoma. Further, the TGI with RPMI-8226 leukemia was more than 100 µM; with IGROV1 ovarian, 52.2 µM.

In the case of `CCCCCCCCCCCCOC1C(CNC(=O)C2OC3OC(C)(C)OC3C2NC(=O)CN2CCCCCC2)OC2OC(C)(C)OC21` (centres undefined), the GI50 in the assay with HS 578T breast is 3.79 µM; in the assay on SF-295 CNS, 6.75 µM; in the assay on HCT-15 colon, 4.03 µM; in the assay on MDA-MB-231 breast it was 9.7 µM; with A498 renal, 13 µM; in the assay with SK-MEL-2 melanoma it was 5.69 µM. Further, the GI50 with RPMI-8226 leukemia was 3.28 µM; in the assay on IGROV1 ovarian, 5.03 µM. Further, the TGI in the assay on HS 578T breast is 18.5 µM; in the assay with SF-295 CNS, 20.4 µM; in the assay with HCT-15 colon it was 14.8 µM; in the assay with MDA-MB-231 breast, 23 µM; in the assay with A498 renal it was 26.3 µM; in the assay with SK-MEL-2 melanoma, 12 µM. In addition, the values for the TGI in the assay with RPMI-8226 leukemia and in the assay on IGROV1 ovarian were 12.5 µM and 15.2 µM, respectively.

As for `COc1ccc(Cn2cc3c(c2-c2cc(OC)c(OC)c(OC)c2)CCc2cnoc2-3)cc1[N+](=O)[O-]`, the GI50 in the assay on HS 578T breast was 1.13 µM; in the assay on SF-295 CNS, 0.328 µM; with HCT-15 colon, 0.573 µM; with MDA-MB-231 breast it was 2.13 µM; with A498 renal it was 0.617 µM; in the assay on SK-MEL-2 melanoma, 0.366 µM. Moreover, the GI50 was 1.39 µM with RPMI-8226 leukemia and 0.82 µM with IGROV1 ovarian. Besides, the TGI in the assay on SF-295 CNS is 2.09 µM; in the assay with HCT-15 colon it was more than 100 µM; with MDA-MB-231 breast, more than 41.2 µM; in the assay with SK-MEL-2 melanoma it was 10.3 µM; in the assay on RPMI-8226 leukemia, more than 29.9 µM; with IGROV1 ovarian, 51.5 µM.

Values taken from PubChem BioAssay (NCI).
